Experimental findings from patent US9745266B2 (THE REGENTS OF THE UNIVERSITY OF COLORADO, A BODY CORPORATE, priority 2013, dated 2017) are described below.

In brackets after ≈: the same amount, converted by molar mass. Read-outs that look alike come from different tables or passages of the source.

One data set has as its system MRSA ATCC 33592. The data set can be described thus: Minimum resensitizing concentration (MRC), modified broth microdilution. It counts as cell-based, S. aureus. The settings on record: ATCC 33592. The protocol:
(§1) For these activity tests, AMOXICILLIN® was used in combination with clavulanic acid (a.k.a., AUGMENTIN®), CEFAZOLIN®, and MEROPENEM® (an ultra-broad-spectrum carbapenem). […] To assess activity of each analog as a resistance-modifying agent (RMA), a modified broth microdilution assay was used. Briefly, this involves incubating MRSA with 2-fold serial dilutions of a compound in the presence of each individual antibiotic at its Clinical Laboratory Standards Institutes (CLSI)-defined sensitive concentration. For AMOXICILLIN®/clavulanic acid, this concentration is 4/2 μg/ml (8-fold potentiation), for CEFAZOLIN®, 8 μg/ml (16-fold potentiation) and for MEROPENEM®, 4 μg/ml (4-fold potentiation). Following overnight incubation, plates were examined for bacterial growth, or lack thereof. Compounds were tested at concentrations ranging from 0.5-32 μg/ml. […] The half growth inhibitory concentration (GI50) of each analog was determined by fitting the data using KaleidaGraph (v4.1.1, Synergy Software).
(§2) A modified broth microdilution assay was employed by incubating MRSA (ATCC: BAA-44) with Of1 in 2-fold series dilution in the presence of individual antibiotics at the highest sensitive concentration at 37° C. overnight. […] The MRC values were also determined for another three MRSA strains. […] Furthermore, the mammalian toxicity of Of1 was evaluated using human liver hepatocellular carcinoma HepG2 cell line in CellTiter Glo™ mammalian viability assay (Promega).
(§3) MRC screens were performed as follows: antibiotic MIC values where S. aureus is considered susceptible were determined from the CLSI handbook supplement. Analogs of Of1 were diluted to 5 mg/ml in DMSO. Antibiotic was prepared at twice the intended final concentration in Mueller Hinton Broth (MHB). For amoxicillin/clavulanic acid, the initial concentration was 8/4 μg/ml, for meropenem 8 μg/ml and for cefazolin 16 μg/ml. 50 μl of the antibiotic containing media was added to each well of 96 well plates and 100 μl was added to the top row. 1.28 μl of 5 mg/ml alkaloid solution was added to the top row of each plate to afford a concentration of 64 μg/ml in the top row of each plate and two fold serial dilutions were performed down the columns. Once the plates were prepared, a day culture of MRSA was diluted to OD600 0.002 and 50 μl was added to each well. The final concentration of MRSA was OD600 0.001, the final concentration of amoxicillin/clavulanic acid was 4/2 μg/ml, the final concentration of meropenem was 4 μg/ml the final concentration of cefazolin was 8 μg/ml, and the highest concentration of Of1 analog tested was 32 μg/ml. Plates were incubated overnight at 37° C. with shaking. The MRC value was determined as the concentration of Of1 analog in the presence of antibiotic at which there was no observable overnight growth.
On the technique in general: Broth dilution looks for growth in wells or tubes with falling amounts of substance.

The test system of data set [1] is MRSA ATCC BAA-44. The data set is described as above. The settings on record: ATCC BAA-44; oxacillin at highest sensitive concentration. It is filed as cell-based, S. aureus. The protocol: as §1, §2, §3
For data set [2], the system named is ATCC 700789 (vancomycin intermediate resistant S. aureus, VISA). The data set can be described thus: Minimum resensitizing concentration (MRC). It is filed as cell-based. The method, then: (§4) A modified broth microdilution assay was employed by incubating MRSA (ATCC: BAA-44) with Of1 in 2-fold series dilution in the presence of individual antibiotics at the highest sensitive concentration at 37° C. overnight. […] This is probably due to both the different sensitive concentration defined for each antibiotic and the different level of resistance of MRSA to various antibiotics. The MRC values were also determined for another three MRSA strains. The strain 33592 (ATCC) behaves similarly to BAA-44, and their MRCs for the three antibiotics tested are all 4 μg/mL. […] ATCC 700789 is particularly interesting, because it is also known as a vancomycin intermediate resistant S. aureus (VISA). […] Furthermore, the mammalian toxicity of Of1 was evaluated using human liver hepatocellular carcinoma HepG2 cell line in CellTiter Glo™ mammalian viability assay (Promega).

A further data set concerns MRSA ATCC BAA-1683. Nature of the data set: Minimum resensitizing concentration (MRC). It is filed as cell-based, S. aureus. The protocol: as §4
The test system of data set [3] is MRSA ATCC BAA-44. The data set can be described thus: MIC in the presence of 20 μM Of1 / alkaloid. It is filed as cell-based, S. aureus. The method, then:
(§5) Indoline alkaloid compounds were then screened for the ability to potentiate the activity of methicillin against MRSA. A multi-drug resistant MRSA strain (ATCC: BAA-44) was selected for the initial screening. […] To each well, 20 μM of each individual indoline alkaloid was added and the plates were incubated at 37° C. for 16 hrs.
(§6) The MRSA strain ATCC BAA-44 and the methicillin-sensitive S. aureus (MSSA) strain ATCC 25923 were used to determine the MIC values of various antimicrobial compounds in the presence of 20 μM Of1. The experiment was conducted similarly to the CLSI MIC determination described previously; however, MHB was supplemented with 40 μM Of1 prior to set up and inoculation. The final concentration of Of1 after inoculation with BAA-44 was 20 μM.

For data set [4], the system named is methicillin-sensitive S. aureus (MSSA, ATCC: 25923). Nature of the data set: MIC, CLSI broth microdilution. It is filed as cell-based. The settings on record: Staphylococcus aureus; MSSA ATCC 25923, compound alone. The method, then: as §5
All antimicrobial compounds were purchased from Sigma-Aldrich. The growth media used for all MIC experiments was Mueller Hinton Broth (MHB) purchased from HIMEDIA through VWR (cat: 95039-356). The inoculum was prepared by diluting a bacterial day culture (OD600 0.15-0.4) to OD600 0.002. This dilution was further diluted two fold when added to 96 well microplates (USA Scientific CytoOne 96-well TC plate, cat: CC7682-7596) for a final inoculum concentration of OD600 0.001. All plates were incubated at 37° C. with shaking for 18 hours (overnight) before results were interpreted.

For a further data set, the system named is HeLa cells. Nature of the data set: Mammalian cytotoxicity, CellTiter-Glo viability assay. It is filed as cell-based, human. The settings on record: 24 hours. The protocol: To evaluate the cytotoxicity of Of1 in mammalian cells, a cell viability assay was carried out using CellTiter-Glo luminescent cell viability assay kit (Promega). Human cervixcal adenocarcinoma HeLa cells were seeded on white, cell-culture treated 96-well plates (Corning: 3917) with Dulbecco's modified Eagle's medium (DMEM) supplemented with 10% fetal calf serum (FCS), 1% penicillin/streptomycin, at the densities of 20,000 cells/well. The medium volume for each well was 100 μL. Cells were incubated at 37° C. in 5% CO2/95% air for 16 hours. The medium was removed from each well and replaced with 99 μL of warmed fresh medium. To each well, 1 μL of Of1 analog was added in DMSO to final concentrations of 0.5-32 μg/mL. Each series was performed in triplicate. After incubation at 37° C. for another 24 hours, the plates were equilibrated to room temperature for 30 minutes. 100 μL of CellTiter-Glo reagent (Promega) was added to each well and mixed for 2 minutes on an orbital shaker. The plate was incubated at room temperature for another 10 minutes to stabilize luminescent signal. The luminescence of each sample was recorded in an Envision Multilabel Plate Reader (Perkin Elmer).
A general note: In ATP-based viability assays light output follows the ATP content of the culture.

The nature of data set [5]: Mammalian toxicity, CellTiter Glo viability assay. It counts as cell-based, human. To be noted: human, HepG2 cells. The method, then: as §4
A further data set concerns HepG2 cells. The data set can be described thus: Mammalian toxicity, CellTiter Glo viability assay. It counts as cell-based, human. The settings on record: at 4 μg/mL. The protocol: as §4
Data set [6] relates to MSSA strain (ATCC: 25923). Nature of the data set: Potentiation of β-lactam antibiotics by 20 μM Of1 in MSSA. To be noted: MSSA ATCC 25923. It is filed as cell-based, S. aureus. The method, then: Taken together, it appears that Of1 is a resistance-modifying agent specifically for β-lactam antibiotics.
as §6

Data set [7] deals with MRSA ATCC BAA-44. Nature of the data set: MIC, CLSI broth microdilution. It is filed as cell-based, S. aureus. The settings on record: MRSA ATCC BAA-44, compound alone.

Regarding `C=C1CCC[C@@H]2Nc3ccc(Br)cc3[C@]12CCNS(=O)(=O)c1ccc(Cl)cc1` (stereo in doubt) [Of1, N-(2-(6-Bromo-4-methylene-2,3,4,4a,9,9a-hexahydro-1H-carbazol-4a-yl)ethyl)-4-chlorobenzenesulfonamide], the “MRC of Of1, amoxicillin/clavulanate” value (in the data set on MRSA ATCC 33592; in data set [2] (ATCC 700789 (VISA)); in the data set with MRSA ATCC BAA-1683) was 4 µg/mL throughout. For the same compound, the “MRC of Of1, cefazolin” value with MRSA ATCC 33592 was 4 µg/mL. Further, the “MRC of Of1, oxacillin” value with MRSA ATCC 33592 (oxacillin at highest sensitive concentration) is 4 µg/mL; in the data set with MRSA ATCC BAA-44 [1] it was 2 µg/mL; in data set [2] (ATCC 700789), >64 µg/mL; in the data set on MRSA ATCC BAA-1683 (32 μg/mL highest concentration tested), >32 µg/mL. Besides, in the data set on MRSA ATCC BAA-44 [3] (20 μM (ca. 10 μg/mL) Of1, MRSA BAA-44), the “fold potentiation of methicillin” value was 16 fold. In addition, the “fold potentiation of all β-lactam antibiotics” value in the data set with MRSA ATCC BAA-44 [3] (20 μM Of1, MRSA BAA-44) is 8-128 fold. In the data set on MRSA ATCC BAA-44 [3] (20 μM Of1, MRSA BAA-44), the “fold potentiation of meropenem” value came out at 16 fold. The “MIC of methicillin in media supplemented with 20 μM alkaloid” value in the data set with MRSA ATCC BAA-44 [3] (MRSA ATCC BAA-44, methicillin MIC alone 128) was found to be 8 µg/mL. In addition, the MIC in data set [4] is > 128 µg/mL; with MRSA ATCC BAA-44 [7] it was > 128 µg/mL; in the data set with MRSA ATCC BAA-44 [7] (Staphylococcus aureus, read-out: MIC) it was > 128 µg/mL. Moreover, the GI50 with HeLa cells was 17.1 µg/mL (≈ 35.5 µM); in data set [5], ~8.9 µg/mL (≈ 18.5 µM). Moreover, the “cytotoxic effect against HepG2 cells” value in the data set with HepG2 cells was “no observable cytotoxic effect”. Moreover, the “potentiation of β-lactam antibiotics in MSSA” value in [6] is given as “does not show any significant potentiation effect”.

As a reminder, the MIC is the smallest concentration in the dilution series that meets the test's criterion for growth inhibition. A word on the GI50: it is the concentration giving 50% growth inhibition.
